The record followed here is patent US20100144779A1, “Marine Alkalod Makaluvamines and Derivatives Thereof” (THE UAB RESEARCH FOUNDATION, priority 2007, published 2010).

Test in all cases: NCI60 cell line screen (SRB)
Holding throughout (type): cell-based, human

In test [1] the test system is NCI-H552. Conditions: NCI-H552, Non-Small Cell Lung Cancer, 48 h. Summed up:
(§1)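 Percentage growth was derived as [(Ti−Tz)/(C−Tz)]×100 when Ti≥Tz, otherwise [(Ti−Tz)/Tz]×100, from SRB absorbance. Adherent cells, cultured in RPMI 1640 plus 5% FBS, were drug-treated for 48 h after a 24 h attachment period.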

Test [2] has as its system HL-60. Conditions: HL-60, Leukemia, 48 h. Summed up:
as §1

For test [3], the system named is SK-OV-3. The settings on record: SK-OV-3, Ovarian Cancer, 48 h. Summed up: as §1
The test system of test [4] is ACHN. Conditions: Renal Cancer, 48 h. The gist of the method: as §1
Test [5] concerns SR. Conditions: Leukemia, 48 h. Summed up: as §1
In test [6] the test system is 786-0. Conditions: 786-0, Renal Cancer, 48 h. Summed up:
as §1

Test [7] concerns OVCAR4. Conditions: OVCAR4, Ovarian Cancer, 48 h. The gist of the method:
as §1

The test system of test [8] is RXF 393. The settings on record: RXF 393, Renal Cancer, 48 h. Summed up:
as §1

In test [9] the test system is SK-MEL-28. Conditions: SK-MEL-28, Melanoma, 48 h. Summed up:
as §1

In test [10] the test system is U251. Conditions: U251, CNS Cancer, 48 h. The gist of the method:
as §1

Test [11] concerns HOP-92. The settings on record: HOP-92, Non-Small Cell Lung Cancer, 48 h. Summed up: as §1
In test [12] the test system is SF-295. The settings on record: SF-295, CNS Cancer, 48 h. The gist of the method:
as §1

Test [13] has as its system UACC-62. The settings on record: UACC-62, Melanoma, 48 h. The gist of the method: as §1
The test system of test [14] is RPMO-8226. The settings on record: RPMO-8226, Leukemia, 48 h. The gist of the method:
as §1

Test [15] relates to M14. The settings on record: M14, Melanoma, 48 h. Summed up:
as §1

Test [16] concerns SK-MEL-2. Conditions: SK-MEL-2, Melanoma, 48 h. The gist of the method:
as §1

Test [17] deals with CAKI-1. The settings on record: CAKI-1, Renal Cancer, 48 h. The gist of the method: as §1
Test [18] has as its system UO-31. The settings on record: UO-31, Renal Cancer, 48 h. The gist of the method:
as §1

Test [19] has as its system HCC-2998. Conditions: HCC-2998, Colon Cancer, 48 h. The gist of the method:
as §1

Test [20] has as its system NCI-H226. Conditions: NCI-H226, Non-Small Cell Lung Cancer, 48 h. The gist of the method:
as §1

For test [21], the system named is NCI-H23. Conditions: NCI-H23, Non-Small Cell Lung Cancer, 48 h. Summed up:
as §1

Test [22] deals with SNB-19. The settings on record: SNB-19, CNS Cancer, 48 h. The gist of the method:
as §1

For test [23], the system named is MCF-7. The settings on record: MCF-7, Breast Cancer, 48 h. Summed up:
as §1

In test [24] the test system is A549/ATCC. Conditions: Non-Small Cell Lung Cancer, 48 h. Summed up: as §1
Test [25] has as its system TK-10. Conditions: TK-10, Renal Cancer, 48 h. Summed up: as §1

What is called GI50 is the concentration giving 50% growth inhibition. A higher GI50 goes with lower sensitivity of the cells.

In the case of `CNC1=CC2=NCCc3c[nH]c(c32)C1=O` [Compound 4a], the GI50 in test [1] turned out to be 4130 nM; in test [2], 2540 nM; in test [3], 18.7 µM; in [4], 13.1 µM; in test [5] it was 3120 nM; in [6] it was 10.5 µM. The GI50 stood at 1080 nM in test [7]; 4220 nM in test [8]; 6.62 µM in [9]; 4.2 µM in test [10]; 1280 nM in test [11]; 1210 nM in [12]. Moreover, the GI50 in test [13] came out at 2490 nM; in test [14], 5990 nM; in [15], 2570 nM; in test [16] it was 1.67 µM; in test [17] it was 1950 nM; in [18] it was 14.6 µM. Moreover, the GI50 in test [19] was determined as 4910 nM; in test [20] it was 11.1 µM; in test [21] it was 2460 nM; in [22], 3.43 µM; in test [23] it was 1520 nM; in [24], 2780 nM. In test [25], this compound showed a GI50 of 15.4 µM.
On to `O=C(O)C(F)(F)F.O=C1C(NCc2ccc(F)cc2)=CC2=NCCc3c[nH]c1c32` [Compound 28], for which the GI50 in test [1] (Homo sapiens) is 2000 nM; in [2] (Homo sapiens) it was 1530 nM; in [3] (Homo sapiens) it was 3.15 µM; in test [4] (Homo sapiens), 2.04 µM; in [5] (Homo sapiens), 1210 nM; in [6] (Homo sapiens) it was 3.45 µM. For the same compound, the GI50 in test [7] (Homo sapiens, OVCAR-4) is 1090 nM; in test [8] (Homo sapiens), ≤ 10 nM; in [9] (Homo sapiens), 5.78 µM; in [10] (Homo sapiens, U-251), 1.99 µM; in test [11] (Homo sapiens) it was 1680 nM; in test [12] (Homo sapiens) it was 1060 nM. Also, the GI50 in test [13] (Homo sapiens) stood at 1560 nM; in test [14] (Homo sapiens) it was 559 nM; in [15] (Homo sapiens), 1440 nM; in [16] (Homo sapiens), 4.53 µM; in [17] (Homo sapiens) it was 329 nM; in [18] (Homo sapiens) it was 2.59 µM. Besides, the GI50 in [19] (Homo sapiens) came out at 2700 nM; in [20] (Homo sapiens) it was 2.34 µM; in test [21] (Homo sapiens), 521 nM; in test [22] (Homo sapiens), 1.79 µM; in test [23] (Homo sapiens, MCF7) it was 160 nM; in [24] (Homo sapiens) it was 1440 nM. For the same compound, growth in [25] (Homo sapiens) was halved (GI50) at 3.19 µM.
`O=C1C(NCc2ccccc2)=CC2=NCCc3c[nH]c1c32` [Compound 4c]: the GI50 in test [1] came to 1690 nM; in test [2] it was 325 nM; in [3], 7.01 µM; in test [4] it was 2.8 µM; in test [5] it was 1750 nM; in test [6], 3.22 µM. The GI50 in [7] was determined as 624 nM; in test [8], 2090 nM; in test [9], 7.42 µM; in test [10], 2.66 µM; in test [11], 308 nM; in test [12], 1120 nM. The GI50 in test [13] worked out at 1820 nM; in test [14], 1360 nM; in test [15], 1280 nM; in test [16], 5.2 µM; in test [17], 298 nM; in [18] it was 2.63 µM. Besides, the GI50 stood at 2610 nM in [19]; 5.45 µM in test [20]; 1470 nM in [21]; 1.96 µM in [22]; 61 nM in [23]; 2140 nM in test [24]. This compound also displayed a GI50 in test [25] of 4.72 µM.
For the compound `O=C(O)C(F)(F)F.O=C1C(NCCc2ccc3c(c2)OCO3)=CC2=NCCc3c[nH]c1c32` [Compound 6], the GI50 in test [1] (Homo sapiens) worked out at 2620 nM; in test [2] (Homo sapiens), 1920 nM; in [3] (Homo sapiens), 9.7 µM; in test [4] (Homo sapiens), 3.25 µM; in test [5] (Homo sapiens) it was 2500 nM; in [6] (Homo sapiens), 3.98 µM. For the same compound, the GI50 in test [7] (Homo sapiens, OVCAR-4) stood at 971 nM; in [9] (Homo sapiens), 4.91 µM; in test [10] (Homo sapiens, U-251) it was 3.05 µM; in test [11] (Homo sapiens), 5450 nM; in test [12] (Homo sapiens) it was 1870 nM; in test [13] (Homo sapiens), 2320 nM. Also, the GI50 in test [15] (Homo sapiens) amounted to 1430 nM; in test [16] (Homo sapiens) it was 5.82 µM; in test [17] (Homo sapiens), 1770 nM; in test [18] (Homo sapiens), 5.84 µM; in test [19] (Homo sapiens) it was 1560 nM; in test [20] (Homo sapiens), 4.38 µM. The GI50 in test [21] (Homo sapiens) came to 1690 nM; in test [22] (Homo sapiens), 3.29 µM; in test [23] (Homo sapiens, MCF7), 1210 nM; in [25] (Homo sapiens) it was 4.51 µM.
In the case of `COc1ccc(CCNC2=CC3=NCCc4c[nH]c(c43)C2=O)cc1OC.O=C(O)C(F)(F)F` [Compound 20], the GI50 in test [1] (Homo sapiens) stood at 2240 nM; in test [2] (Homo sapiens), 3140 nM; in test [3] (Homo sapiens) it was 14.6 µM; in test [4] (Homo sapiens), 4.21 µM; in test [5] (Homo sapiens) it was 5690 nM; in test [6] (Homo sapiens), 5.43 µM. In addition, the GI50 in test [7] (Homo sapiens, OVCAR-4) was 1160 nM; in [9] (Homo sapiens) it was 10.1 µM; in test [10] (Homo sapiens, U-251), 3.44 µM; in [11] (Homo sapiens), 1030 nM; in test [12] (Homo sapiens), 1840 nM; in [13] (Homo sapiens) it was 2170 nM. Further, the GI50 in test [15] (Homo sapiens) was determined as 2260 nM; in test [16] (Homo sapiens), 0.73 µM; in [17] (Homo sapiens) it was 2670 nM; in test [18] (Homo sapiens), 7.11 µM; in test [19] (Homo sapiens), 2350 nM; in test [20] (Homo sapiens) it was 1.06 µM. Moreover, the GI50 was 2000 nM in test [21] (Homo sapiens); 3.26 µM in test [22] (Homo sapiens); 2610 nM in [23] (Homo sapiens, MCF7); 2720 nM in [24] (Homo sapiens); 5.1 µM in test [25] (Homo sapiens).
